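Protocol summary: plate cells (96-well), add compound at 5 concentrations, incubate 48 h, interpolate endpoints linearly. GI50 marks 50% less growth.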 Calls of active or inactive are those of the source. Cut-off read from the data, not from the text of the source: active = GI50 up to about 1.1 µM and inactive = higher.
How the values were obtained:
Experiment in all cases: inhibition of tumour cell growth, NCI panel, 48 h
786-0 = system: 786-0
CAKI-1 = system: CAKI-1
COLO 205 = system: COLO 205
EKVX = system: EKVX
HCT-116 = system: HCT-116
HOP-92 = system: HOP-92
LOX IMVI = system: LOX IMVI
MOLT-4 = system: MOLT-4
NCI-H522 = system: NCI-H522
OVCAR-4 = system: OVCAR-4
OVCAR-5 = system: OVCAR-5
OVCAR-8 = system: OVCAR-8
SF-295 = system: SF-295
SF-539 = system: SF-539
HCT-15 = system: HCT-15
SK-MEL-5 = system: SK-MEL-5
SNB-75 = system: SNB-75

Compound	GI50 (786-0)	GI50 (CAKI-1)	GI50 (COLO 205)	GI50 (EKVX)	GI50 (HCT-116)	GI50 (HOP-92)	GI50 (LOX IMVI)	GI50 (MOLT-4)	GI50 (NCI-H522)	GI50 (OVCAR-4)	GI50 (OVCAR-5)	GI50 (OVCAR-8)	GI50 (SF-295)	GI50 (SF-539)	GI50 (HCT-15)	GI50 (SK-MEL-5)	GI50 (SNB-75)
BrC1(Br)C2/C=C\CCCCC21 (configuration not stated)	> 100 µM (inactive)	> 100 µM (inactive)	> 100 µM (inactive)	> 100 µM (inactive)	> 100 µM (inactive)	42.3 µM (inactive)	> 100 µM (inactive)	> 100 µM (inactive)	> 100 µM (inactive)	> 100 µM (inactive)	> 100 µM (inactive)	> 100 µM (inactive)	> 100 µM (inactive)	> 100 µM (inactive)	–	–	–
Cc1ccc(Oc2ccc(C)cc2N)cc1	86.9 µM (inactive)	–	> 100 µM (inactive)	71 µM (inactive)	> 100 µM (inactive)	32.3 µM (inactive)	> 100 µM (inactive)	53 µM (inactive)	–	68.9 µM (inactive)	68.4 µM (inactive)	> 100 µM (inactive)	96.4 µM (inactive)	> 100 µM (inactive)	48.5 µM	44.1 µM (inactive)	16.5 µM (inactive)
CC1(c2ccc(F)cc2)C2C(=O)NC(=O)C1C(=O)NC2=O (configuration not stated)	> 100 µM (inactive)	> 100 µM (inactive)	> 100 µM (inactive)	> 100 µM (inactive)	–	> 100 µM (inactive)	> 100 µM (inactive)	> 100 µM (inactive)	> 100 µM (inactive)	> 100 µM (inactive)	> 100 µM (inactive)	> 100 µM (inactive)	> 100 µM (inactive)	> 100 µM (inactive)	> 100 µM	> 100 µM (inactive)	> 100 µM (inactive)
Cc1c(C(=O)/C=C/c2ccco2)[n+]([O-])c2ccccc2[n+]1[O-]	> 100 µM (inactive)	> 100 µM (inactive)	> 100 µM (inactive)	> 100 µM (inactive)	> 100 µM (inactive)	45.4 µM (inactive)	> 100 µM (inactive)	39.6 µM (inactive)	58.9 µM (inactive)	–	> 100 µM (inactive)	> 100 µM (inactive)	> 100 µM (inactive)	> 100 µM (inactive)	–	–	> 100 µM (inactive)
CCCN1CC=CCC1	> 100 µM (inactive)	–	> 100 µM (inactive)	> 100 µM (inactive)	> 100 µM (inactive)	> 100 µM (inactive)	> 100 µM (inactive)	> 100 µM (inactive)	> 100 µM (inactive)	–	> 100 µM (inactive)	> 100 µM (inactive)	> 100 µM (inactive)	> 100 µM (inactive)	> 100 µM	> 100 µM (inactive)	> 100 µM (inactive)
O=[N+]([O-])c1cccc(C2=NOC3C4CCC(C4)C23)c1 (configuration not stated)	> 100 µM (inactive)	–	> 100 µM (inactive)	–	> 100 µM (inactive)	> 100 µM (inactive)	–	> 100 µM (inactive)	> 100 µM (inactive)	> 100 µM (inactive)	> 100 µM (inactive)	> 100 µM (inactive)	> 100 µM (inactive)	> 100 µM (inactive)	> 100 µM	> 100 µM (inactive)	> 100 µM (inactive)
CCC1CN2CCc3c([nH]c4ccccc34)C2C[C@@H]1CC(=O)N(C)C (some centres not stated)	> 100 µM (inactive)	–	> 100 µM (inactive)	> 100 µM (inactive)	> 100 µM (inactive)	51.6 µM (inactive)	> 100 µM (inactive)	> 100 µM (inactive)	> 100 µM (inactive)	> 100 µM (inactive)	> 100 µM (inactive)	> 100 µM (inactive)	> 100 µM (inactive)	> 100 µM (inactive)	> 100 µM	> 100 µM (inactive)	21.4 µM (inactive)
Oc1cc(-c2ccccn2)nc2cccc(F)c12	> 100 µM (inactive)	–	> 100 µM (inactive)	> 100 µM (inactive)	–	> 100 µM (inactive)	89.9 µM (inactive)	> 100 µM (inactive)	> 100 µM (inactive)	> 100 µM (inactive)	> 100 µM (inactive)	> 100 µM (inactive)	> 100 µM (inactive)	> 100 µM (inactive)	–	61.4 µM (inactive)	51.4 µM (inactive)
CCOc1ccc2c(c1)[n+]([O-])c(S(=O)(=O)c1ccc(C)cc1)c(N)[n+]2[O-]	> 100 µM (inactive)	> 100 µM (inactive)	> 100 µM (inactive)	> 100 µM (inactive)	> 100 µM (inactive)	> 100 µM (inactive)	–	> 100 µM (inactive)	49.2 µM (inactive)	> 100 µM (inactive)	> 100 µM (inactive)	> 100 µM (inactive)	> 100 µM (inactive)	> 100 µM (inactive)	–	> 100 µM (inactive)	91.6 µM (inactive)
C#CCN(N=O)C(=O)NC(CCCCNC(=O)OCc1ccccc1)C(=O)OCc1ccccc1 (configuration not stated)	17.8 µM (inactive)	–	28.5 µM (inactive)	22.7 µM (inactive)	33.8 µM (inactive)	15.7 µM (inactive)	25.5 µM (inactive)	16.8 µM (inactive)	13.9 µM (inactive)	24.7 µM (inactive)	24.5 µM (inactive)	17.4 µM (inactive)	55.5 µM (inactive)	–	20.8 µM	–	33.5 µM (inactive)
COc1ccc2nc(-c3ccc(OCc4ccccc4)cc3)ccc2c1	> 100 µM (inactive)	–	> 100 µM (inactive)	> 100 µM (inactive)	> 100 µM (inactive)	> 100 µM (inactive)	> 100 µM (inactive)	> 100 µM (inactive)	> 100 µM (inactive)	> 100 µM (inactive)	> 100 µM (inactive)	> 100 µM (inactive)	> 100 µM (inactive)	> 100 µM (inactive)	–	> 100 µM (inactive)	> 100 µM (inactive)
O=C(Cc1ccccc1)N/N=C(\C1=Nc2ccc([N+](=O)[O-])cc2NC1O)C(O)c1ccc([N+](=O)[O-])cc1 (configuration not stated)	> 100 µM (inactive)	> 100 µM (inactive)	64.1 µM (inactive)	> 100 µM (inactive)	> 100 µM (inactive)	> 100 µM (inactive)	25.8 µM (inactive)	–	7.89 µM (inactive)	> 10 µM (inactive)	> 100 µM (inactive)	> 100 µM (inactive)	53.1 µM (inactive)	> 100 µM (inactive)	> 100 µM	68.9 µM (inactive)	> 100 µM (inactive)
COC(=O)CCC(NC(=S)N/N=C(\C)c1cnc2ccccc2n1)C(=O)OC (configuration not stated)	43.6 µM (inactive)	–	2.55 µM (inactive)	12.6 µM (inactive)	18.3 µM (inactive)	–	23.2 µM (inactive)	15.6 µM (inactive)	11.2 µM (inactive)	25.9 µM (inactive)	16.3 µM (inactive)	46.9 µM (inactive)	49.8 µM (inactive)	41.8 µM (inactive)	35.1 µM	21.2 µM (inactive)	47.4 µM (inactive)
CN(C)CCNC(=O)c1cccc2c1nc(-c1ccncc1)c1ccccc12	3.66 µM (inactive)	1.81 µM (inactive)	1.61 µM (inactive)	2.47 µM (inactive)	1.46 µM (inactive)	2.09 µM (inactive)	1.35 µM (inactive)	0.0316 µM (active)	–	4.01 µM (inactive)	4.88 µM (inactive)	3.06 µM (inactive)	2.85 µM (inactive)	2.03 µM (inactive)	1.99 µM	1.81 µM (inactive)	3.36 µM (inactive)
CC1=C(C(=O)Nc2cccc(Cl)c2)C(c2ccccc2F)C(C(=O)Nc2cccc(Cl)c2)=C(C)N1	13.7 µM (inactive)	4.99 µM (inactive)	11.2 µM (inactive)	6.22 µM (inactive)	–	1.15 µM (inactive)	7.1 µM (inactive)	2.51 µM (inactive)	9.16 µM (inactive)	5.83 µM (inactive)	19.3 µM (inactive)	17 µM (inactive)	17.3 µM (inactive)	13.9 µM (inactive)	–	13.5 µM (inactive)	6.79 µM (inactive)
CC1=NN(C(=O)Cc2ccccc2)C(=O)/C1=C\c1ccco1	> 100 µM (inactive)	> 100 µM (inactive)	> 100 µM (inactive)	> 100 µM (inactive)	> 100 µM (inactive)	–	> 100 µM (inactive)	> 100 µM (inactive)	> 100 µM (inactive)	> 100 µM (inactive)	> 100 µM (inactive)	> 100 µM (inactive)	> 100 µM (inactive)	> 100 µM (inactive)	> 100 µM	> 100 µM (inactive)	> 100 µM (inactive)
COCCOCOC(CCCCO)c1cc(C)c(O[Si](C)(C)C(C)(C)C)c(C)c1 (configuration not stated)	11.1 µM (inactive)	–	7.71 µM (inactive)	8.17 µM (inactive)	–	–	5.66 µM (inactive)	2.86 µM (inactive)	1.64 µM (inactive)	–	13.7 µM (inactive)	5.01 µM (inactive)	3.97 µM (inactive)	12.4 µM (inactive)	7.36 µM	2.64 µM (inactive)	10.6 µM (inactive)
COc1ccc2oc3c4c2c1CCC4CCC3=O (configuration not stated)	> 100 µM (inactive)	–	> 100 µM (inactive)	> 100 µM (inactive)	–	55.7 µM (inactive)	> 100 µM (inactive)	52.8 µM (inactive)	58.2 µM (inactive)	33 µM (inactive)	> 100 µM (inactive)	59.4 µM (inactive)	> 100 µM (inactive)	> 100 µM (inactive)	–	> 100 µM (inactive)	28.1 µM (inactive)
COc1ccc(C(=O)Cc2c(C(=O)c3ccccc3)c3ccccc3n2C(=O)c2ccccc2)cc1	> 100 µM (inactive)	> 100 µM (inactive)	> 100 µM (inactive)	–	37.2 µM (inactive)	25.2 µM (inactive)	–	25.6 µM (inactive)	47.1 µM (inactive)	32.2 µM (inactive)	> 100 µM (inactive)	> 100 µM (inactive)	31.3 µM (inactive)	> 100 µM (inactive)	46 µM	17.7 µM (inactive)	18.3 µM (inactive)

— ChEMBL document CHEMBL1201862, “PubChem BioAssay data set” (2004)
